Values quoted from earlier work, collected in US20220378803A1, “INJECTABLE COMPOSITIONS OF URSODEOXYCHOLIC ACID” (SHILPA MEDICARE LIMITED, priority 2019, published 2022).

solubility in water: practically insoluble
Compound: C[C@H](CCC(=O)O)[C@H]1CC[C@H]2[C@@H]3[C@@H](O)C[C@@H]4C[C@H](O)CC[C@]4(C)[C@H]3CC[C@]12C [UDCA, ursodeoxycholic acid]
